Compound | melting point [°C]
CCc1ccc(O)c(C(C)=O)c1O | 130 to 131
Cn1c(=O)c(C2=NNC(=O)C2=NNc2cccc(Cl)c2)c(O)c2ccccc21 | 222
O=Cc1ccc(CN2C(=O)c3ccccc3C2=O)o1 | 125 to 126
CCOC(=O)c1nc2ccccc2s1 | 70
Cc1ccc2ncccc2c1[N+](=O)[O-] | 118 to 120
NC(=O)C1(N2C(=O)c3cccc(Cl)c3C2=O)CCCCC1 | 194
Cc1cc(S(N)(=O)=O)ccc1Br | 151
CC(=CC(=O)O)C(F)(F)F | 28 to 30
O=C(O)c1cc([N+](=O)[O-])c(Cl)c([N+](=O)[O-])c1 | 161
C[Si](C)(C)CC(=O)O | 41
N=c1oc2ccccc2cc1CSN | 165
CC(CCl)(CCl)C(=O)O | 64 to 66
CC(=O)OC1CCC2C3CCC45OC4C(=O)C=CC5(O)C3CCC12C (centres undefined) | 178
CC1(C)CC(=O)C2=C(C1)Nc1ccc3ccccc3c1C2c1ccc(F)cc1 (centres undefined) | 204
CCOC(=O)c1ccc2c(c1)OCO2 | 18.5
Cc1cncc(N2CCC(C(=O)Oc3c(F)c(F)c(F)c(F)c3F)CC2)n1 | 94 to 95
NC(=O)/C(=C\c1ccc(F)cc1)c1nc2ccccc2s1 | 178
C=C(CCl)CCl | 14
Nc1ccc(S(=O)(=O)O)cc1 | 365
Nc1cc2c(cc1C=Cc1ccccc1)CC(c1ccccc1)N2 (centres undefined) | 163
Cc1cc(C)n(C)n1 | 35.5
C1=COCCC1 | -70
O=C(C1=NOC2C(=O)N(c3ccccc3[N+](=O)[O-])C(=O)C12)c1ccc(Cl)cc1 (centres undefined) | 173
Cc1nc(N)ccc1Br | 82 to 83

Compound | melting point [°C]
Nc1c([N+](=O)[O-])ccc(Oc2ccccc2)c1Cl | 81.5
CC/C=C/CCCC | -110
Brc1cnc2c(c1)OCCN2 | 116 to 119
COc1ccc(CBr)cc1C(F)(F)F | 77
C[Si](C)(C)c1ccc([Si](C)(C)C)cc1 | 92 to 96
CNC(=O)Oc1ccc2c(c1)C1(C)CCOC1N2C (centres undefined) | 124
CN1COCc2c1ccc1cc3ccc(N)c(CO)c3nc21 | 235
NCCc1ccc(O)cc1 | 164
O=Cc1c[nH]nc1-c1ccc(C(F)(F)F)cc1 | 113 to 115
N#Cc1ccc(CCc2ccc(C#N)cc2)cc1 | 198 to 203
Cc1ccc2sccc2c1 | 35 to 36
O=C(O)C(F)(F)C(F)(F)C(F)(F)C(F)(C(F)(F)F)C(F)(F)F | 13
COc1ccc(NC(=O)/C(C)=N\NC(N)=O)cc1 | 226 to 228
COc1ccc(/C=C(/C#N)c2nc3ccccc3c(=O)[nH]2)cc1 | 280
CCOC(=O)C(N)=O | 112 to 115
CC(C)C1=C(O)C(=O)C2=C(C1=O)C(O)CC1C(C)(C)CCCC21C (centres undefined) | 214
CCCCC(C)C(C)C (centres undefined) | -116
NS(=O)(=O)c1c(Cl)nc2sccn12 | 176 to 177
COc1ccc(N=C=O)c(OC)c1 | 32
O=C(CCCc1ccccc1)c1ccccc1 | 55 to 59
COc1cc(C=C(C(=O)O)C(=Cc2cc(OC)c(OC)c(OC)c2)C(=O)O)cc(OC)c1OC | 229
C=CCSc1nnc(-c2cc(Br)cc(Br)c2O)n1N | 162
Cc1cc(N)n[nH]1 | 41 to 43
O=P(N1CC1)(N1CC1)N(N=Cc1ccc(Cl)cc1)c1ccccc1 | 136

Compound | melting point [°C]
Cc1ccc(C2(O)CCN(CCCC(=O)c3ccc(F)cc3)CC2)cc1 | 118
O=C(O)c1ccccc1-n1ccnc1 | 198 to 200
CN(CC(=O)O)C(=N)N | 255
CC(CCC(=O)O)n1nc2ccccc2n1 (centres undefined) | 73
Nc1ccc(Sc2ccc(N)cc2)cc1 | 108
O=C(O)C(C(=O)O)c1ccsc1 | 139
FC(F)(F)COc1ccc(OCC(F)(F)F)cc1 | 76
Clc1ncccc1-c1ccc(Br)nc1 | 161
Oc1cccc2c1CCCC2O (centres undefined) | 132 to 134
O=c1[nH]cnc2c1cnn2C1CCCCC1 | 251 to 252
O=C(O)c1cccc(Cn2cccn2)c1 | 151 to 152
CCc1ccc2c(c1)CCCC2 | -70
Cc1nc(-c2ccc(C(=O)Cl)cc2)no1 | 112 to 113
Cc1ccc(S(=O)(=O)C#N)cc1 | 48
c1ccc2c(c1)OCCOCCOCCOCCOCCO2 | 40 to 45
Oc1ccc(C2(c3ccc(O)cc3)CC3CC2C2CCCC32)cc1 (centres undefined) | 219 to 221
Brc1n[nH]c2nc3ccccc3nc12 | 273 to 276
NC(=NO)c1ccc(Cl)cc1 | 131 to 134
NC(=O)NC(=O)Cc1ccccc1 | 215
Cn1c(C(=O)O)cc2occc21 | 200
Cc1nc(-c2ccc(S(=O)(=O)NN)cc2)c(-c2ccc(S(=O)(=O)NN)cc2)o1 | 178 to 180
CC(C)(C)Oc1ncc(Br)c(OC(C)(C)C)n1 | 60
Cc1n[nH]c(SCc2ccc(Cl)cc2)n1 | 151 to 153
Cc1c(C)n(C(=O)c2ccccc2)c2ccccc12 | 98

Compound | melting point [°C]
Cn1cnc(S(=O)(=O)Cl)c1 | 85 to 90
C=CCNC(=O)C(O)C(O)C(=O)NCC=C (centres undefined) | 182 to 186
Cn1nc(C(=O)Cl)cc1-c1ccco1 | 60 to 61
CN(C)C(=O)Nc1cc(C(C)(C)C)on1 | 120
Ic1cccc(CN2CCOCC2)c1 | 32 to 34
Oc1ccc2ccncc2c1 | 227
CN(C)C=C(C=O)c1ccccc1[N+](=O)[O-] | 119 to 120
CCCC(=O)c1ccc(O)cc1 | 91
Nc1cccc(S(=O)(=O)c2cccc(N)c2)c1 | 172
Nc1cc(C(F)(F)F)ccc1N1CCCC1 | 33 to 35
Cn1c(=O)c(C2=NNC(=O)C2=CNc2nccs2)c(O)c2ccccc21 | 248
COc1cc(Br)cc(Br)c1 | 41.5
COC(=O)c1ccccc1S(=O)(=O)NC(=O)N(C)c1nc(C)nc(OC)n1 | 142
Cc1ccc(C#N)cc1[N+](=O)[O-] | 106
CCOC(=O)C(C#N)=NO | 130
CC12CCC(C(O)=C/C1=N\Nc1ccccc1)C2(C)C (centres undefined) | 188
CNC(=NO)c1cc(C(C)(C)C)c(O)c(C(C)(C)C)c1 | 200 to 201
O=[N+]([O-])c1cccnc1Oc1ccccc1F | 90 to 92
Cc1nccc(O)c1OCc1ccc(Cl)cc1 | 195 to 199
Cc1cc(C(=O)O)cc(C)c1F | 166
Cc1ccc(C(c2ccc(C)o2)c2cc([N+](=O)[O-])ccc2O)o1 | 143
Cc1ncsc1C | 83.5
